# In patent US20260242353A1, “HETEROARYL DERIVATIVES AS DDRs INHIBITORS” (CHIESI FARMACEUTICI S.P.A., priority 2022, published 2026):
# Legend:
# DDR2 = biological target: T1, DDR2 (Homo sapiens, UniProt Q16832); test: LanthaScreen Europium Kinase Binding assay, DDR2; conditions: 5 nM DDR2, 10 nM Kinase Tracer 178, 1 h at rt; Ki from IC50 by Cheng-Prusoff; read-out: Ki DDR2
# T1 construct: purchased Life Technologies
# T1 sequence (Q16832 22-855): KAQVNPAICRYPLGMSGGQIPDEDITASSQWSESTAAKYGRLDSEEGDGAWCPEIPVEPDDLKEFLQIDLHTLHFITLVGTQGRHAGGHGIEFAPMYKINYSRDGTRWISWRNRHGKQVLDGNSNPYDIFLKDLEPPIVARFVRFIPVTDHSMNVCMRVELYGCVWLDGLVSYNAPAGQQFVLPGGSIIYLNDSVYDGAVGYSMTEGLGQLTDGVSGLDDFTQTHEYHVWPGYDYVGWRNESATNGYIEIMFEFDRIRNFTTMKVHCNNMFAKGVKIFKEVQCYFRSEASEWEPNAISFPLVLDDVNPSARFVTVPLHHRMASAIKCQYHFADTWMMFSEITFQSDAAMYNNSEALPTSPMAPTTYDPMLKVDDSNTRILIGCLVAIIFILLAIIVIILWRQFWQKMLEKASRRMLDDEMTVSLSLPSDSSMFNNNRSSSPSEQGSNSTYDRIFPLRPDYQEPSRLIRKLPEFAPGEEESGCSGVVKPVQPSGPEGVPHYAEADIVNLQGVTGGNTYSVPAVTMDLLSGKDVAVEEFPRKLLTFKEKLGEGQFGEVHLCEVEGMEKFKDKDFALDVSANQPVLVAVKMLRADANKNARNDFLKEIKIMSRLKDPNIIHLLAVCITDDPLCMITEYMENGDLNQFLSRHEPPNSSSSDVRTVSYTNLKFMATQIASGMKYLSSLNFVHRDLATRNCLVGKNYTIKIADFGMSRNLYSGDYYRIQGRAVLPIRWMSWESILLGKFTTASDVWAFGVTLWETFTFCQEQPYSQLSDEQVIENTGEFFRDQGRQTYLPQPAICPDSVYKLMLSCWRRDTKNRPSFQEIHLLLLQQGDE
# Summary of the method: (§1)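 Compounds were incubated 1 h at rt with 5 nM DDR1 plus 20 nM Kinase Tracer 178, or 5 nM DDR2 plus 10 nM tracer, and 2 nM Eu anti-GST antibody in HEPES pH 7.5 buffer. Read-out was the TR-FRET 665/615 nm ratio. IC50 came from a 4-parameter fit and was converted to Ki by Cheng-Prusoff.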
# DDR1 = biological target: T2, DDR1 (Homo sapiens, UniProt Q08345); test: LanthaScreen Europium Kinase Binding assay, DDR1; conditions: 5 nM DDR1, 20 nM Kinase Tracer 178, 1 h at rt; Ki from IC50 by Cheng-Prusoff; read-out: Ki DDR1
# T2 construct: purchased Carna Biosciences
# Summary of the method: as §1
# T2 sequence (Q08345 19-913): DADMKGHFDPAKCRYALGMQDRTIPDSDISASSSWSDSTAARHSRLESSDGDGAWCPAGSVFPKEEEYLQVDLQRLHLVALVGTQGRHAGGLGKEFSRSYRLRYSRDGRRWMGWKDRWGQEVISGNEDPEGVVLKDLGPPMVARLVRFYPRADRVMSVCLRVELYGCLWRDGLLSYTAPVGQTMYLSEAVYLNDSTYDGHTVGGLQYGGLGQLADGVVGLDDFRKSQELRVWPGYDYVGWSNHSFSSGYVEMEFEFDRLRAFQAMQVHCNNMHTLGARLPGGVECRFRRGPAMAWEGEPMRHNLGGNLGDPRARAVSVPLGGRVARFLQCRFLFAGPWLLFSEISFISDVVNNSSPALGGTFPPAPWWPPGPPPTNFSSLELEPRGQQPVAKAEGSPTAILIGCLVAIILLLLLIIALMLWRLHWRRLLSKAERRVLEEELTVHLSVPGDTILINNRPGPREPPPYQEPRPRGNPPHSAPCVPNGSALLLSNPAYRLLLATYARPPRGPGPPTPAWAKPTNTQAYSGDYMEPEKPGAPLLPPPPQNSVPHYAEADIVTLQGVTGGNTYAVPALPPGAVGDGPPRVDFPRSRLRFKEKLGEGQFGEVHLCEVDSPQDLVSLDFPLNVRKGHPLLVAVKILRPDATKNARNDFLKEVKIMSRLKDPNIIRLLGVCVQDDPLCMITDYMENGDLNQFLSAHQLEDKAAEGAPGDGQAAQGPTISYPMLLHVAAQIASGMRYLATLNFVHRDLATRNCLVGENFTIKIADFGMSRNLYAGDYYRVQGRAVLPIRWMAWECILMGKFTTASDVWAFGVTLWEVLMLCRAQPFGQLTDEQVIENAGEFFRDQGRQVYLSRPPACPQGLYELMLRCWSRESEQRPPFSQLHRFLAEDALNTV
Ki (DDR2) [nM],Ki (DDR1) [nM],Structure (SMILES)
5 to 25,< 5,"Cc1ccc(C(=O)Nc2cncc(C(F)(F)F)c2)cc1[C@@H]1CCN(c2ncnc3cc(C(=O)N4CCOCC4)sc23)C1 [Example 61, (S)-4-methyl-3-(1-(6-(morpholine-4-carbonyl)thieno[3,2-d]pyrimidin-4-yl)pyrrolidin-3-yl)-N-(5-(trifluoromethyl)pyridin-3-yl)benzamide]"
< 5,< 5,"Cc1ccc(C(=O)Nc2cncc(C(F)(F)F)c2)cc1[C@@H]1CCN(c2ccnc(C(N)=O)c2)C1 [Example 63, (S)-4-(3-(2-methyl-5-((5-(trifluoromethyl)pyridin-3-yl)carbamoyl)phenyl)pyrrolidin-1-yl)picolinamide]"
5 to 25,< 5,"COc1ccc(C(=O)Nc2cncc(C(F)(F)F)c2)cc1C1CCN(c2ccnc(C(N)=O)c2)C1 (stereo not drawn) [Example 64, 4-(3-(2-methoxy-5-((5-(trifluoromethyl)pyridin-3-yl)carbamoyl)phenyl)pyrrolidin-1-yl)picolinamide]"
5 to 25,< 5,"Cc1ccc(C(=O)Nc2cncc(C(F)(F)F)c2)cc1[C@@H]1CCN(c2cnn(C)c2C(N)=O)C1 [Example 65, (S)-1-methyl-4-(3-(2-methyl-5-((5-(trifluoromethyl)pyridin-3-yl)carbamoyl)phenyl)pyrrolidin-1-yl)-1H-pyrazole-5-carboxamide]"
25 to 100,5 to 25,"Cc1ccc(C(=O)Nc2cncc(C(F)(F)F)c2)cc1[C@@H]1CCN(c2cccc(C(N)=O)c2)C1 [Example 66, (S)-3-(1-(3-carbamoylphenyl)pyrrolidin-3-yl)-4-methyl-N-(5-(trifluoromethyl)pyridin-3-yl)benzamide]"
< 5,< 5,"Cc1ccc(C(=O)Nc2cc(C(F)F)ccn2)cc1[C@@H]1CCN(c2cncnc2)C1 [Example 67, (S)-N-(4-(difluoromethyl)pyridin-2-yl)-4-methyl-3-(1-(pyrimidin-5-yl)pyrrolidin-3-yl)benzamide]"
5 to 25,5 to 25,"Cc1ccc(C(=O)Nc2cc(C(F)(F)F)nn2C)cc1[C@@H]1CCN(c2cncnc2)C1 [Example 68, (S)-4-methyl-N-(1-methyl-3-(trifluoromethyl)-1H-pyrazol-5-yl)-3-(1-(pyrimidin-5-yl)pyrrolidin-3-yl)benzamide]"
5 to 25,< 5,"CCc1cc(NC(=O)c2ccc(C)c([C@@H]3CCN(c4cncnc4)C3)c2)no1 [Example 69, (S)-N-(5-ethylisoxazol-3-yl)-4-methyl-3-(1-(pyrimidin-5-yl)pyrrolidin-3-yl)benzamide]"
25 to 100,5 to 25,"Cc1ccc(C(=O)Nc2cc(C3CC3)nn2C)cc1[C@@H]1CCN(c2cncnc2)C1 [Example 70, (S)-N-(3-cyclopropyl-1-methyl-1H-pyrazol-5-yl)-4-methyl-3-(1-(pyrimidin-5-yl)pyrrolidin-3-yl)benzamide]"
< 5,< 5,"Cc1ccc(C(=O)Nc2cncc(C(F)(F)F)c2)cc1[C@@H]1CCN(c2cnc3ccccn23)C1 [Example 71, (S)-3-(1-(imidazo[1,2-a]pyridin-3-yl)pyrrolidin-3-yl)-4-methyl-N-(5-(trifluoromethyl)pyridin-3-yl)benzamide]"
5 to 25,< 5,"Cc1ccc(C(=O)Nc2cncc(C(F)(F)F)c2)cc1[C@@H]1CCN(c2cnc3ccc(N4CCN(C)CC4)cn23)C1 [Example 72, (S)-4-methyl-3-(1-(6-(4-methylpiperazin-1-yl)imidazo[1,2-a]pyridin-3-yl)pyrrolidin-3-yl)-N-(5-(trifluoromethyl)pyridin-3-yl)benzamide]"
5 to 25,< 5,"Cc1ccc(C(=O)Nc2cncc(C(F)(F)F)c2)cc1[C@@H]1CCN(c2cnc3ccc(N4CCN(CC#N)CC4)cn23)C1 [Example 73, (S)-3-(1-(6-(4-(cyanomethyl)piperazin-1-yl)imidazo[1,2-a]pyridin-3-yl)pyrrolidin-3-yl)-4-methyl-N-(5-(trifluoromethyl)pyridin-3-yl)benzamide]"
